Measured values from patent US20260191856A1 (priority 2022, published 2026).
Several values for one entry are separate records, joined by “and”; a condition that tells them apart may be missing. Identical values can stand only once. Entries after “also recorded” stand apart in the source; their conditions may differ. Marks after values point to notes of the source that are not given here.

Experiments:
MOR [1] = molecular target: T1, MOR (Homo sapiens, UniProt P35372); type: cell-based
T1 construct: expressed in transfected cells; host or cells: HEK293T

in vivo = details: male, C57BL/6J, mouse, iv, 10 mg/kg
male C57BL/6J mice [2] = test: Locomotor and respiration effects (CLAMS)
MOR [3] = molecular target: T2, MOR (Mus musculus, UniProt P42866); type: biochemical; design: FLAG (N); hexa-histidine (C); made in house; host or cells: Spodoptera frugiperda (Sf9) for MOR; Trichoplusia ni for Gi
male C57BL/6J mice [4] = test: Naloxone-precipitated opioid withdrawal assay
MOR [5] = molecular target: T1, MOR; test: TRUPATH subtype selectivity, MOR/DAMGO; type: cell-based; details: compound A3 up to 30 μM
[6] = male, C57BL/6J, mouse, in vivo, iv, 10 mg/kg
male C57BL/6J mice [7] = test: Conditioned place preference (CPP) assay; type: in vivo, mouse; details: compound A3 100 mg/kg sc (−30 min) + naloxone 0.1 mg/kg s.c.
male C57BL/6J mice [8] = details: mouse, in vivo
κOR = molecular target: T3, κOR (Homo sapiens, UniProt P41145); test: TRUPATH subtype selectivity, κOR/U50488; type: cell-based; details: compound A3 up to 30 μM
T3 construct: expressed in transfected cells; host or cells: HEK293T (method is written for MOR)

δOR = molecular target: T4, δOR (Homo sapiens, UniProt P41143); test: TRUPATH subtype selectivity, δOR/DPDPE; type: cell-based; details: compound A3 up to 30 μM
T4 construct: expressed in transfected cells; host or cells: HEK293T (method is written for MOR)

MOR [9] = molecular target: T2, MOR; test: biochemical; type: binding; design: made in house; host or cells: Sf9 insect cell membranes (baculovirus)
MOR [10] = molecular target: T1, MOR; type: cell-based; remark: listed apart in the source
CB1 [11] = molecular target: T5, CB1 (Homo sapiens, UniProt P21554); test: GTP turnover assay with CB1 and Gi1; type: biochemical; design: Purification of human full-length CB1 with an N-terminal FLAG and C-terminal hexahistidine tags; FLAG (N); hexahistidine (C); made in house; host or cells: insect cells (baculovirus, Expression Systems) for CB1; Trichoplusia ni for Gi
CB1 [12] = molecular target: T5, CB1; test: 3H-SR141716A radioligand binding to CB1-containing membranes; design: made in house; host or cells: insect cell membranes (inferred from 'similar manner' to the Sf9 MOR membranes); details: compared with ZCZ
Description: CB1-containing membranes prepared in a similar manner to the μOR-containing membranes prepared above were diluted 1:2000 in 50 mM HEPES pH 7.4, 5 mM EDTA, 5 mM MgCl2, and 1% bovine serum albumin (BSA). 96-well plates precoated with blocking buffer (20 mM HEPES (pH 7.4), 100 mM NaCl, and 0.05% BSA) were used as reaction plates. For “competition” binding experiments, membranes were incubated with 6 nM ^3H-SR141716a (50.9 Ci/mmol; Perkin Elmer) and serially diluted allosteric modulators for 1 hour at room temperature with shaking. Following incubation, membranes were rapidly bound to double thick 90×120 mm glass fibre Printed Filtermat B filters (Perkin Elmer) presoaked in 0.33% (v/v) polyethylenimine and washed with cold binding buffer (20 mM HEPES pH 7.4, 100 mM NaCl) using a MicroBeta Filtermat-96 cell harvester (Perkin Elmer). ^3H-SR141716a bound membranes on Filtermats were measured with a MicroBeta counter (Perkin Elmer) after addition of MultiLex B/HS melt-on scintillator sheets (Perkin Elmer) and data values were plotted after normalizing total counts per minute to the highest and lowest values.

[13] = compound A3 1-100 mg/kg + naloxone 0.1 mg/kg, maximal at 100 mg/kg
[14] = Condition 4 morphine + compound A3 (100 mg/kg) + low NAL (0.1 mg/kg)

T2 sequence (P42866 whole entry): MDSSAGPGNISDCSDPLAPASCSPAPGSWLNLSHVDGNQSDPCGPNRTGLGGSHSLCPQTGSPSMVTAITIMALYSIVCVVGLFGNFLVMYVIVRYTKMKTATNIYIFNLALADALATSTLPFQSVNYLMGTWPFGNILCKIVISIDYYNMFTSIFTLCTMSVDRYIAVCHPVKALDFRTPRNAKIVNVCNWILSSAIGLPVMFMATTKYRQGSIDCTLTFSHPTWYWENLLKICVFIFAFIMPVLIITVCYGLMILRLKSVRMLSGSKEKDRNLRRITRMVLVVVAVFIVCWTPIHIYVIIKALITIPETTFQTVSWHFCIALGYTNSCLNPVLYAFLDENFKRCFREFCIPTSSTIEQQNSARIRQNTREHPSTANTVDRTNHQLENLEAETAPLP
T5 sequence (P21554 whole entry): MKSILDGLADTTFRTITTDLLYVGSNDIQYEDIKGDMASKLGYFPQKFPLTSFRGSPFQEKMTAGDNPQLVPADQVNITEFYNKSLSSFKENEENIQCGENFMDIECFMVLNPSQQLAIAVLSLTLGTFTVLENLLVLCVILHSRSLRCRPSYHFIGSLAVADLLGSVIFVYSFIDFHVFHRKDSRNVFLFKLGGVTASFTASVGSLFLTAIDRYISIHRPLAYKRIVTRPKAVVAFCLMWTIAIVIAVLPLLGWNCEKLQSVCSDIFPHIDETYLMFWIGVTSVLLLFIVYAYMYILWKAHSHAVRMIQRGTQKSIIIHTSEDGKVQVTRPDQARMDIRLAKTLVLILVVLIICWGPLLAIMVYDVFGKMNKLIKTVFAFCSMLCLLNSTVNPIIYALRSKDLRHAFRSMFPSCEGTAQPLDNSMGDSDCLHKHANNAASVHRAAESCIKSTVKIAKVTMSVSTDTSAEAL
T1 sequence (P35372 whole entry): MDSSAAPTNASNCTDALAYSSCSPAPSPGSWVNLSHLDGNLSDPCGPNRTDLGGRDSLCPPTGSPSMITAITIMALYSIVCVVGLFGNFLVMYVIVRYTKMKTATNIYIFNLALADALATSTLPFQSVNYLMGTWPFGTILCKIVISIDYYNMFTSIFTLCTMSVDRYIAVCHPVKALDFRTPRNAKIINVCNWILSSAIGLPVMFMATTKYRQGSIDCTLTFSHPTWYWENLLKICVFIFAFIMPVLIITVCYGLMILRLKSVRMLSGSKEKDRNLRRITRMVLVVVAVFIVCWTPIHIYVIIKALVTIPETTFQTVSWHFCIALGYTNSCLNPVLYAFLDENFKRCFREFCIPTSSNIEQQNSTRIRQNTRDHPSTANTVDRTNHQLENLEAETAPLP
T4 sequence (P41143 whole entry): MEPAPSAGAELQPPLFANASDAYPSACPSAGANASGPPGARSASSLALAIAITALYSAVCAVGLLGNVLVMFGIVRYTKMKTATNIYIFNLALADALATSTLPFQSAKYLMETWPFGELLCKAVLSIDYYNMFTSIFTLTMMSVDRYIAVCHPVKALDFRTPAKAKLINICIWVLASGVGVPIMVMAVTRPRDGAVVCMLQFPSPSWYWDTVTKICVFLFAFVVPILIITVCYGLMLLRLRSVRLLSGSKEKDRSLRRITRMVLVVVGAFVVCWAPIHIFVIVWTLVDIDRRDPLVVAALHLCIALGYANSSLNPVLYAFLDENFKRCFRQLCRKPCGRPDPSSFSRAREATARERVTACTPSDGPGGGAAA
T3 sequence (P41145 whole entry): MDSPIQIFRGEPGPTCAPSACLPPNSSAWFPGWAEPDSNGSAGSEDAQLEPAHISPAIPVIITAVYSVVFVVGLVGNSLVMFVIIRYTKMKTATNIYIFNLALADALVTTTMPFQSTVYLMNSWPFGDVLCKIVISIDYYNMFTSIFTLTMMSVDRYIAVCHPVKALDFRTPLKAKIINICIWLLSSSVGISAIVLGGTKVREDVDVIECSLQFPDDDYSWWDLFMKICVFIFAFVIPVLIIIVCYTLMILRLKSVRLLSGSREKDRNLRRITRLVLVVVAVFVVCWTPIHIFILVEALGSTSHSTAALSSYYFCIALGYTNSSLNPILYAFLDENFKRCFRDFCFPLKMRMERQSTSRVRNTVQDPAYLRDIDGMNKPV

CNC(=O)C(Cc1ccc(C)c(OC)c1)NC(=O)CSc1ccc2ccccc2c1-c1cncc(OCc2ccccc2)c1 (racemic) [Compound A3, 2-(2-((1-(5-(benzyloxy)pyridin-3-yl)naphthalen-2-yl)thio)acetamido)-3-(3-methoxy-4-methylphenyl)-N-methylpropanamide]
enhancement of observed potency of naloxone for inhibiting agonist-induced signaling (MOR [1]): 7.6 | half-life (in vivo): 44.4 min | enhancement of low-dose naloxone inhibition of morphine-induced hyperlocomotion (male C57BL/6J mice [2]; [13]): significantly enhances low-dose naloxone inhibition of hyperlocomotion | enhancement of low-dose naloxone inhibition of morphine-induced respiratory depression (male C57BL/6J mice [2]; [13]): significantly enhances low-dose naloxone inhibition | ambulation or breathing rate, compound itself (male C57BL/6J mice [2]; compound A3 alone, relative to vehicle): does not change ambulation or breathing rate relative to vehicle administration | GTP turnover in the absence of orthosteric ligand (MOR [3]): inhibits turnover of the receptor in the absence of orthosteric ligand; also recorded: inhibited receptor-catalyzed GTP turnover in the absence of orthosteric ligands | effect on met-enkephalin induced activation of G protein (GTP turnover) (MOR [3]): significantly inhibits met-enkephalin induced activation of Gi; also recorded: inhibited MOR/met-enkephalin induced activation of Gl | efficacy of modulation of met-enkephalin-induced GTP turnover (MOR [3]): inhibiting GTP depletion to nearly the same levels as those observed for G in the absence of any receptor catalyst; also recorded: nearly eliminating receptor induced GTP turnover | potency in GTP turnover assay (MOR [3]): single-digit μM range | potency of A3 at inhibiting relative to A1 at enhancing MOR/met-enkephalin induced activation of G (MOR [3]): > 10 fold | Forepaw Licking Frequency, Avg (male C57BL/6J mice [4]; [14]): 0.6 | Forepaw Tremor, Avg (male C57BL/6J mice [4]; [14]): 1.6 | Rearing Frequency, Avg (male C57BL/6J mice [4]; [14]): 1.6* | Straightening, Avg (male C57BL/6J mice [4]; [14]): 0.2 | Wet Dog shakes, Avg (male C57BL/6J mice [4]; [14]): 1.1 | magnitude of naloxone-precipitated withdrawal, combined low-dose naloxone/NAM treatment (male C57BL/6J mice [4]; compound A3 100 mg/kg s.c. + naloxone 0.1 mg/kg s.c., morphine-dependent mice): did not potentiate the magnitude of withdrawal caused by a low-dose of naloxone alone to the same levels of withdrawal symptoms as the conventional naloxone treatment | right-shift in DAMGO potency at the MOR (MOR [5]): 3.7 fold | brain penetration [6]: ~ 25 % of maximum plasma levels | morphine CPP after compound A3 and low-dose naloxone (male C57BL/6J mice [7]): morphine CPP was eliminated | impact on morphine-induced antinociception, compound alone (male C57BL/6J mice [8]): no significant impact on morphine-induced antinociception | inhibition of morphine-induced antinociception in the presence of low-dose naloxone (male C57BL/6J mice [8]): significantly inhibits morphine-induced antinociception in a dose-dependent manner | median dose to potentiate low-dose naloxone antagonism of morphine antinociception (male C57BL/6J mice [8]): 1.15 (0.03-4.04) mg/kg, s.c. | effect at κOR activation by U50,488 (κOR): No effect is observed at KOR activation by U50,488 | right-shift in DPDPE potency at δOR (δOR): caused a right-shift in DPDPE potency at SOR, though to a lesser extent | EC50 (MOR [9]; EC50 of increased binding of 3H-naloxone, MOR-expressing membranes): 130 nM and 133 nM | increase in 3H-naloxone affinity (MOR [9]; in the presence of excess A3): ~ 2.6 fold and 2.6 fold | enhancement of observed on-rate of 3H-naloxone (MOR [9]; orthosteric site saturated with mitragynine pseudoindoxyl): > 10 fold | inhibition across Gi/o subtypes (MOR [10]): all Ci/o subtypes were inhibited nearly equally

CNC(=O)c1nc2ccc(N3CC(N)C3)nn2c1-c1ccc(OCc2ccccc2)c(F)c1 [Compound A4]
effect on Gi1 GTP turnover, AEA-bound CB1 (CB1 [11]; AEA): not AEA-bound CB1 | effect on Gi1 GTP turnover, FUB-bound CB1 (CB1 [11]; FUB (MDMB-Fubinaca)): enhance FUB-induced Gi turnover; also recorded: specifically able to increase turnover for FUB-bound CB1 | effect on 3H-SR141716A antagonist binding (CB1 [12]): binds CB1 and decreases antagonist affinity though with lower potency than the known PAM, ZCZ
